Measured values as given in patent publication US20250243196A1, “CITRON KINASE INHIBITORS” (The Cleveland Clinic Foundation, priority 2021, published 2025).

Molecular target: Citron kinase (Homo sapiens (Human), UniProt O14578)
Test: Radiometric citron kinase assay (Eurofins Cat #16-040KP)
Format: biochemical
Settings: mean of at least two independent assays; read-out: Radiometric CitK IC50
Excerpt: In some embodiments, the step of contacting the sample with the compound comprises administering the compound to a subject (e.g., a subject) suffering from cancer. Methods of determining kinase inhibition are well known in the art. For example, kinase activity of an enzyme and the inhibitory capacity of a test compound can be determined by measuring enzyme specific phosphorylation of a substrate. Commercial assays and kits can be employed. For example, kinase inhibition can be determined using a radiometric binding assay, such as using KinaseProfiler™ technology (Eurofins Discovery). This assay method directly detects product formation without the use of modified substrates or coupling enzymes. Test compounds are incubated with kinase, substrate, required cofactors and radioisotope labeled ATP. Following incubation, unreacted radioactive ATP is removed by washing and incorporation of the radiolabeled phosphate into the kinase substrate is assayed to detect phosphoryltransferase activity, which is directly proportional to the amount of phosphorylated substrate. Inhibition of the kinase by a kinase inhibitor prevents phosphorylation of the substrate and thereby limits the incorporation of radiolabeled phosphate. Such an assay is compatible with a microwell assay format, allowing simultaneous determination of IC50 of multiple compounds.
Compounds were screened for biochemical kinase activity (Eurofins Discovery, France) using one of two assays. […] All values in Table 1 are the mean of at least two independent assays.

Sequence of Citron kinase (O14578 whole entry): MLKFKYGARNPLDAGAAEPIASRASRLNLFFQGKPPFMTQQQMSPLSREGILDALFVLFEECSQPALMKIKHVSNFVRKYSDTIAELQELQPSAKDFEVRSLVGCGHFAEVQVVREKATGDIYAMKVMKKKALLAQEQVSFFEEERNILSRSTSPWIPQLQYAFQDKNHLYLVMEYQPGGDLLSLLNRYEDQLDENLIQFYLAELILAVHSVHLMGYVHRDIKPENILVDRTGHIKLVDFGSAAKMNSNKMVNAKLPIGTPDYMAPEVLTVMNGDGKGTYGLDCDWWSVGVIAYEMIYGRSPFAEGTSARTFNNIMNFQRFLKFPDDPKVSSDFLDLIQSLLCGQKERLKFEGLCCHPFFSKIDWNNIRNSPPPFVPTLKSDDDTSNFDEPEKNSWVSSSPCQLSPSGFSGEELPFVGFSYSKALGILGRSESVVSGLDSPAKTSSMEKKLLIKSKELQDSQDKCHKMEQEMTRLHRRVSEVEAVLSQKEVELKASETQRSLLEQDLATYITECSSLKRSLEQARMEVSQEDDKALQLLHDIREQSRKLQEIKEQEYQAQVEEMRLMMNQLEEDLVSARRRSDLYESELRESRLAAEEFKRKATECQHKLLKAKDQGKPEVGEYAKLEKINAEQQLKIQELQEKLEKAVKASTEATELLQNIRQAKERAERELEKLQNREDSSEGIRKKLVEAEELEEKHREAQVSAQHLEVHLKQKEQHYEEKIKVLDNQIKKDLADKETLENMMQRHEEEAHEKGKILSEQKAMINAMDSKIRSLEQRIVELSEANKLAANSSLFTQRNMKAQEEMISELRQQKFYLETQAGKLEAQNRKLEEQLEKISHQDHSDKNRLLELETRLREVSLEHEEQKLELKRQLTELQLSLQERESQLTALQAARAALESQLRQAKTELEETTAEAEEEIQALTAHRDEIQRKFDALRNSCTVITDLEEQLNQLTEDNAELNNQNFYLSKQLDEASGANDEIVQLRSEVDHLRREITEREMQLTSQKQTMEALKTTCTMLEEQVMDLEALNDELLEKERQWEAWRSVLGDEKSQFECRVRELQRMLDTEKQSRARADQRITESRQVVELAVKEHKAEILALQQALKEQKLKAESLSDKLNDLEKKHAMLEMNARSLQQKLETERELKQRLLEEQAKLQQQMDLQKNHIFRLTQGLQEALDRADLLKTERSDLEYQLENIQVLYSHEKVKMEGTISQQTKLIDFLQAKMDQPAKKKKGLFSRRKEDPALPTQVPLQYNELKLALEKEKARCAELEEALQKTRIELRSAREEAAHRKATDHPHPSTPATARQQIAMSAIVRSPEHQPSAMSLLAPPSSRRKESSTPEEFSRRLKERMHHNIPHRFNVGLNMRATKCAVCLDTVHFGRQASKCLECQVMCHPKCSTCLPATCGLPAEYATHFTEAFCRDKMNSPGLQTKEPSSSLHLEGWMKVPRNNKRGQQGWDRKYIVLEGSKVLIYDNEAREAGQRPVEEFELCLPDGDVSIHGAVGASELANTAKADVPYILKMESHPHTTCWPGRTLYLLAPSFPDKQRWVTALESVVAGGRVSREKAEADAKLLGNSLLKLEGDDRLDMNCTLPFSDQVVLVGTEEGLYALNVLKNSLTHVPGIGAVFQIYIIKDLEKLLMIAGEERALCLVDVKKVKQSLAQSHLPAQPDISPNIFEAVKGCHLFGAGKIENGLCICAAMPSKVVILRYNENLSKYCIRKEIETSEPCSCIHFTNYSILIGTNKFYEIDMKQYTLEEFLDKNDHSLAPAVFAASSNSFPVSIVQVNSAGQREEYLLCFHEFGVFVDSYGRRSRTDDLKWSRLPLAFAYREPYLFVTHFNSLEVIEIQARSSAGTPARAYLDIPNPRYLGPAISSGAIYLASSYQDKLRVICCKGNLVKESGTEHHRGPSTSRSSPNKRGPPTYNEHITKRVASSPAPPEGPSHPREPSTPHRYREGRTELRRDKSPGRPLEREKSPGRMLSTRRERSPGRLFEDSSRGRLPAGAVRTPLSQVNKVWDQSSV

| SMILES | IC50 |
| --- | --- |
| CC(C)(C)C[C@@H](N)C(=O)Nc1ccc(-c2ccnc3[nH]c(C4CC4)cc23)cc1 [Compound F-141, (2R)-2-Amino-N-[4-(2-cyclopropyl-1H-pyrrolo[2,3-b]pyridin-4-yl)phenyl]-4,4-dimethyl-pentanamide] | 10 nM |
| Cc1cc(NC(=O)[C@H](N)CC(C)(C)C)ccc1-c1ccnc2[nH]c(C3CC3)cc12 [Compound F-142, (2R)-2-Amino-N-[4-(2-cyclopropyl-1H-pyrrolo[2,3-b]pyridin-4-yl)-3-methyl-phenyl]-4,4-dimethyl-pentanamide] | 18 nM |
| CC(C)(C)C[C@@H](N)C(=O)Nc1ccc(-c2ccnc3[nH]c(C(F)F)cc23)cc1 [Compound F-143, (2R)-2-Amino-N-[4-[2-(difluoromethyl)-1H-pyrrolo[2,3-b]pyridin-4-yl]phenyl]-4,4-dimethyl-pentanamide] | 4 nM |
| CC(C)(C)C[C@@H](N)C(=O)Nc1ccc(-c2ccnc3[nH]c(C(F)(F)F)cc23)cc1 [Compound F-144, (2R)-2-amino-4,4-dimethyl-N-[4-[2-(trifluoromethyl)-1H-pyrrolo[2,3-b]pyridin-4-yl]phenyl]pentanamide] | 22 nM |
| Cc1cc2c(-c3ccc(NC(=O)[C@H](N)CC(C)(C)C)cn3)ccnc2[nH]1 [Compound F-145, (2R)-2-Amino-4,4-dimethyl-N-(6-(2-methyl-1H-pyrrolo[2,3-b]pyridin-4-yl)pyridin-3-yl)pentanamide] | 26 nM |
| CC(C)(C)C[C@@H](N)C(=O)Nc1ccc(-c2ccnc3[nH]c(C(F)(F)F)cc23)cn1 [Compound F-146, (2R)-2-Amino-4,4-dimethyl-N-[5-[2-(trifluoromethyl)-1H-pyrrolo[2,3-b]pyridin-4-yl]-2-pyridyl]pentanamide] | 307 nM |
| Cc1c(-c2ccnc3[nH]c(C(F)(F)F)cc23)ccc(NC(=O)[C@H](N)CC(C)(C)C)c1F [Compound F-147, (2R)-2-Amino-N-[2-fluoro-3-methyl-4-[2-(trifluoromethyl)-1H-pyrrolo[2,3-b]pyridin-4-yl]phenyl]-4,4-dimethyl-pentanamide] | 24 nM |
| COc1nc(-c2ccnc3[nH]c(C)cc23)ccc1NC(=O)[C@H](N)CC(C)(C)C [Compound F-148, (2R)-2-Amino-N-[2-methoxy-6-(2-methyl-1H-pyrrolo[2,3-b]pyridin-4-yl)-3-pyridyl]-4,4-dimethyl-pentanamide] | 18 nM |
| COc1nc(-c2ccnc3[nH]c(C(F)(F)F)cc23)ccc1NC(=O)[C@H](N)CC(C)(C)C [Compound F-149, (2R)-2-Amino-N-[2-methoxy-6-[2-(trifluoromethyl)-1H-pyrrolo[2,3-b]pyridin-4-yl]-3-pyridyl]-4,4-dimethyl-pentanamide] | 38 nM |
| COc1nc(-c2ccnc3[nH]c(C(F)F)cc23)ccc1NC(=O)[C@H](N)CC(C)(C)C [Compound F-150, (2R)-2-Amino-N-[6-[2-(difluoromethyl)-1H-pyrrolo[2,3-b]pyridin-4-yl]-2-methoxy-3-pyridyl]-4,4-dimethyl-pentanamide] | 9 nM |
| Cc1cc2c(-c3ccc(NC(=O)[C@H](N)CC(C)(C)C)nc3C)ccnc2[nH]1 [Compound F-151, (2R)-2-Amino-4,4-dimethyl-N-[6-methyl-5-(2-methyl-1H-pyrrolo[2,3-b]pyridin-4-yl)-2-pyridyl]pentanamide] | 91 nM |
| Cc1nc(NC(=O)[C@H](N)CC(C)(C)C)ccc1-c1ccnc2[nH]c(C(F)F)cc12 [Compound F-152, (2R)-2-Amino-N-[5-[2-(difluoromethyl)-1H-pyrrolo[2,3-b]pyridin-4-yl]-6-methyl-2-pyridyl]-4,4-dimethyl-pentanamide] | 120 nM |
| COc1nc(NC(=O)[C@H](N)CC(C)(C)C)ccc1-c1ccnc2[nH]c(C)cc12 [Compound F-153, (2R)-2-Amino-N-[6-methoxy-5-(2-methyl-1H-pyrrolo[2,3-b]pyridin-4-yl)-2-pyridyl]-4,4-dimethyl-pentanamide] | 35 nM |
| COc1nc(NC(=O)[C@H](N)CC(C)(C)C)ccc1-c1ccnc2[nH]c(C(F)(F)F)cc12 [Compound F-154, (2R)-2-Amino-N-[6-methoxy-5-[2-(trifluoromethyl)-1H-pyrrolo[2,3-b]pyridin-4-yl]-2-pyridyl]-4,4-dimethyl-pentanamide] | 59 nM |
| COc1nc(NC(=O)[C@H](N)CC(C)C)ccc1-c1ccnc2[nH]c(C(F)(F)F)cc12 [Compound F-155, (2R)-2-Amino-N-[6-methoxy-5-[2-(trifluoromethyl)-1H-pyrrolo[2,3-b]pyridin-4-yl]-2-pyridyl]-4-methyl-pentanamide] | 113 nM |
| Cc1cc2c(-c3ccc(NC(=O)[C@H](N)CC(C)(C)C)c(F)c3C)ccnc2[nH]1 [Compound F-156, (2R)-2-Amino-N-[2-fluoro-3-methyl-4-(2-methyl-1H-pyrrolo[2,3-b]pyridin-4-yl)phenyl]-4,4-dimethyl-pentanamide] | 10 nM |
| COc1cccc(C[C@@H](N)C(=O)Nc2ccc(-c3ccnc4[nH]c(C)cc34)c(C)c2)c1 [Compound F-157, (2R)-2-Amino-3-(3-methoxyphenyl)-N-[3-methyl-4-(2-methyl-1H-pyrrolo[2,3-b]pyridin-4-yl)phenyl]propenamide] | 519 nM |
| Cc1cc2c(-c3ccc(NC(=O)[C@@H](N)CC(C)(C)C)cc3C)ccnc2[nH]1 [Compound F-158, (2S)-2-Amino-4,4-dimethyl-N-[3-methyl-4-(2-methyl-1H-pyrrolo[2,3-b]pyridin-4-yl)phenyl]pentanamide] | 126 nM |
| Cc1cc2c(-c3ccc(NC(=O)[C@@H](N)C(C)(C)O)cc3C)ccnc2[nH]1 [Compound F-159, (2S)-2-Amino-3-hydroxy-3-methyl-N-[3-methyl-4-(2-methyl-1H-pyrrolo[2,3-b]pyridin-4-yl)phenyl]butanamide] | 852 nM |
| Cc1cc2c(-c3ccc(NC(=O)C(N)C(O)C(C)(C)C)cc3C)ccnc2[nH]1 (stereo not shown) [Compound F-160, 2-Amino-3-hydroxy-4,4-dimethyl-N-[3-methyl-4-(2-methyl-1H-pyrrolo[2,3-b]pyridin-4-yl)phenyl]pentanamide] | 29 nM |
| COc1cc(NC(=O)[C@H](N)CC(C)(C)C)ccc1-c1ccnc2[nH]ccc12 [Compound F-166, (2R)-2-Amino-N-[3-methoxy-4-(1H-pyrrolo[2,3-b]pyridin-4-yl)phenyl]-4,4-dimethyl-Pentanamide] | 37 nM |
| COc1cc(NC(=O)[C@H](N)CC(C)(C)C)ccc1-c1ccnc2[nH]c(C)cc12 [Compound F-167, (2R)-2-Amino-N-[3-methoxy-4-(2-methyl-1H-pyrrolo[2,3-b]pyridin-4-yl)phenyl]-4,4-dimethyl-pentanamide] | 50 nM |
| COc1cc(NC(=O)[C@H](N)C(C)(C)O)ccc1-c1ccnc2[nH]c(C)cc12 [Compound F-168, (2R)-2-Amino-3-hydroxy-N-[3-methoxy-4-(2-methyl-1H-pyrrolo[2,3-b]pyridin-4-yl)phenyl]-3-methyl-butanamide] | 1530 nM |
| Cc1cc2c(-c3ccc(NC(=O)[C@H](N)CC(C)(C)C)cc3OC(F)F)ccnc2[nH]1 [Compound F-169, (2R)-2-Amino-N-[3-(difluoromethoxy)-4-(2-methyl-1H-pyrrolo[2,3-b]pyridin-4-yl)phenyl]-4,4-dimethyl-pentanamide] | 53 nM |
| Cc1cc2c(-c3ccc(NC(=O)[C@H](N)C(C)(C)O)cc3OC(F)F)ccnc2[nH]1 [Compound F-170, (2R)-2-Amino-N-[3-(difluoromethoxy)-4-(2-methyl-1H-pyrrolo[2,3-b]pyridin-4-yl)phenyl]-3-hydroxy-3-methyl-butanamide] | 315 nM |
| COc1cc(-c2ccnc3[nH]c(C)cc23)ncc1NC(=O)[C@H](N)CC(C)(C)C [Compound F-171, (2R)-2-Amino-N-[4-methoxy-6-(2-methyl-1H-pyrrolo[2,3-b]pyridin-4-yl)-3-pyridyl]-4,4-dimethyl-pentanamide] | 232 nM |
| COc1cc(NC(=O)[C@H](N)CC(C)(C)C)cnc1-c1ccnc2[nH]c(C)cc12 [Compound F-172, (2R)-2-Amino-N-[5-methoxy-6-(2-methyl-1H-pyrrolo[2,3-b]pyridin-4-yl)-3-pyridyl]-4,4-dimethyl-pentanamide] | 3000 nM |
| Cc1cc2c(-c3ccc(NC(=O)[C@H](N)C(C)(C)F)cc3C)ccnc2[nH]1 [Compound F-173, (2S)-2-Amino-3-fluoro-3-methyl-N-[3-methyl-4-(2-methyl-1H-pyrrolo[2,3-b]pyridin-4-yl)phenyl]butanamide] | 461 nM |
